Experimental data as given in patent publication US5885992A, “Triterpene derivative and medicinal composition” (Nippon Shinyaku Company, Limited, priority 1994, dated 1999).

How the values were obtained:
MRL/lpr mice = assay: Effect on nephritis in MRL/lpr mice: incidence of proteinuria; assay type: in vivo, mouse; conditions: 10 weeks; for Number of animals with proteinuria, grade 1+ (30-100 mg/dl) / Number of animals with proteinuria, grade - (negative): control 0 of 12; for Number of animals with proteinuria, grade 3+ (300-1000 mg/dl): control 1 of 12; for Number of animals with proteinuria, grade 2+ (100-300 mg/dl): control 4 of 12; for Number of animals with proteinuria, grade 4+ (>1000 mg/dl): control 7 of 12, *P < 0.05
Experimental: (§1) Effect on nephritis in MRL/lpr mice
(§2) The MRL/lpr mouse is a model of lupus nephritis in mice which spontaneously and secondarily develop proliferative glomerulonephritis due to autoimmune disease. Using this nephritis model, a 10-week long-term oral administration experiment with the test drugs was performed.
(§3) MRL/lpr mice purchased from Jackson Laboratory and maintained in Nippon Shinyaku Co., Ltd. were used.
(§4) A suspension of each test drug was administered orally once a day on 6 days per week from the age 8 weeks for 10 weeks. During the administration period, the semi-quantitative test for urinary protein (regent strips) was performed. At the end of the administration period, the animals were sacrificed and the kidneys were removed. The kidney was fixed in 10% phosphate-buffered formalin and, in the routine manner, paraffin sections were prepared and stained with periodic acid-Schiff stain for microscopy. For histopathological evaluation, the glomerular lesions in each tissue preparation were observed by light microscopy and graded according to the method of Berden (J. Immunology, 130, 1699-1705, 1983) and the incidence (%) of each grade was calculated for each group. Statistical analysis was performed by Mann Whitney's rank-sum test.

mesangial cells [1] = assay: Effect on anti-Thy-1 antibody nephritis in rats (number of mesangial cells per glomerulus); assay type: in vivo, rat; conditions: 100 mg/kg p.o. once a day for 7 days, n=5, mean ± standard error, **P < 0.01, controls (distilled water): 59.5 ± 3.5 (No. 1), 61.8 ± 2.2 (No. 2), 54.8 ± 2.1 (No. 9), intact animal 43
Experimental: Anti-Thy-1 antibody-induced nephritis is a model of glomerulonephritis constructed by utilizing the reaction between the Thy-1 antigen occurring as a membrane protein of mesangial cells and the antibody to the antigen. In this model, injuries to mesangial cells and lesions associated with mesangial cell proliferation are found.
Preparation of anti-Thy-1 antibody
Preparation of the antibody was carried out in accordance with the method of Ishizaki et al. referred to above. Thus, an adjuvant suspension of rat thymocytes was prepared and subcutaneously administered to rabbits for immunization. After two booster doses, the blood was collected and the serum separated was subjected to inactivation and absorption to provide an antiserum (anti-Thy-1 antibody).
A predetermined amount of the antiserum was injected intravenously from the tail vein of rats to induce nephritis. Starting the following day after injection, a suspension of the test drug was administered orally once a day for 7 days. On day 8 following the beginning of administration, the animals were sacrificed and the kidneys were removed. The kidney was fixed in 10% phosphate-buffered formalin and, in the routine manner, paraffin sections were prepared and stained with periodic acid-schiff stain for microscopy. For histopathological evaluation, the number of cells in the glomeruli (mainly mesangial cells) in each tissue preparation was counted under a light microscope. Statistical analysis was performed by unpaired t-test.

mice = assay: Acute toxicity; assay type: in vivo, mouse; conditions: 2 g/kg p.o.; for Acute toxicity: abnormal findings: general condition up to 1 week; for Acute toxicity: death: observed up to 1 week
Text: Compound No. 1 and the compound No. 9 were examined.

glomeruli = assay: Effect on nephritis in MRL/lpr mice: histopathological findings of glomeruli; assay type: in vivo, mouse; conditions: 10 weeks; for Incidence of glomerular lesions, grade - (no remarkable change): control 1; for Incidence of glomerular lesions, grade 4+ (extremely marked change): control 8, **P < 0.01; for Incidence of glomerular lesions, grade 1+ (slight change): control 14; for Incidence of glomerular lesions, grade 3+ (marked change): control 25; for Incidence of glomerular lesions, grade 2+ (moderate change): control 52
Experimental: as §1, §2, §3, §4

mesangial cells [2] = assay: Inhibitory effect on mesangial cell proliferation in vitro; assay type: cell-based; conditions: Rattus norvegicus, 10 μg/ml, 72 hours, LPS-stimulated macrophage culture supernatant, crystal violet, relative to control, read-out: Inhibition rate of mesangial cell proliferation in vitro
Experimental: Inhibitory effect on mesangial cell proliferation in vitro
Glomeruli were isolated from the rat kidney by the sieving method. Mesangial cells were obtained from isolated these glomeruli which were maintained in culture. The mesangial cells were seeded on the plate and, after 24 hours, an LPS (lipopolysaccharide)-stimulated macrophage culture supernatant (a solution containing growth factor) and the test drug were added and the plate was incubated for 72 hours. The mesangial cells were fixed and stained with crystal violet and the absorbance was measured. The inhibitory activity of the mesangial cell proliferation of the test compound was evaluated in relative inhibition rate (%) in comparison with the absorbance of the control obtained under the same culture conditions.

Q: Which results are given for `CC1(C)CC[C@]2(C(=O)O)CC[C@]3(C)C(=CC[C@@H]4[C@@]5(C)CC[C@H](O)[C@@](C)(CO)[C@@H]5CC[C@]43C)[C@@H]2C1` [Compound No. 1, 3β,23-dihydroxyolean-12-en-28-oic acid]?
A: Number of animals with proteinuria, grade 1+ (30-100 mg/dl) (MRL/lpr mice; 10 mg/kg p.o., n=13): 7; Number of animals with proteinuria, grade - (negative) (MRL/lpr mice; 10 mg/kg p.o., n=13): 0; Number of animals with proteinuria, grade 3+ (300-1000 mg/dl) (MRL/lpr mice; 10 mg/kg p.o., n=13): 1; Number of animals with proteinuria, grade 2+ (100-300 mg/dl) (MRL/lpr mice; 10 mg/kg p.o., n=13): 2; Number of animals with proteinuria, grade 4+ (>1000 mg/dl) (MRL/lpr mice; 10 mg/kg p.o., n=13): 3; Number of animals with proteinuria, grade 1+ (30-100 mg/dl) (MRL/lpr mice; 30 mg/kg p.o., n=14): 4; Number of animals with proteinuria, grade - (negative) (MRL/lpr mice; 30 mg/kg p.o., n=14): 3; Number of animals with proteinuria, grade 3+ (300-1000 mg/dl) (MRL/lpr mice; 30 mg/kg p.o., n=14): 5; Number of animals with proteinuria, grade 2+ (100-300 mg/dl) (MRL/lpr mice; 30 mg/kg p.o., n=14): 0; Number of animals with proteinuria, grade 4+ (>1000 mg/dl) (MRL/lpr mice; 30 mg/kg p.o., n=14): 2; Number of mesangial cells per glomerulus (mesangial cells [1]): 48.2 ± 1.6; Acute toxicity: abnormal findings (mice): nor was there any abnormal findings; Acute toxicity: death (mice): no death was encountered; Incidence of glomerular lesions, grade - (no remarkable change) (glomeruli; 10 mg/kg p.o.): 3%; Incidence of glomerular lesions, grade 4+ (extremely marked change) (glomeruli; 10 mg/kg p.o.): 2%; Incidence of glomerular lesions, grade 1+ (slight change) (glomeruli; 10 mg/kg p.o.): 29%; Incidence of glomerular lesions, grade 3+ (marked change) (glomeruli; 10 mg/kg p.o.): 9%; Incidence of glomerular lesions, grade 2+ (moderate change) (glomeruli; 10 mg/kg p.o.): 57%; Incidence of glomerular lesions, grade - (no remarkable change) (glomeruli; 30 mg/kg p.o.): 3%; Incidence of glomerular lesions, grade 4+ (extremely marked change) (glomeruli; 30 mg/kg p.o.): 0%; Incidence of glomerular lesions, grade 1+ (slight change) (glomeruli; 30 mg/kg p.o.): 25%; Incidence of glomerular lesions, grade 3+ (marked change) (glomeruli; 30 mg/kg p.o.): 9%; Incidence of glomerular lesions, grade 2+ (moderate change) (glomeruli; 30 mg/kg p.o.): 63%

Q: `CC(=O)OCCOC(=O)[C@]12CCC(C)(C)C[C@H]1C1=CC[C@@H]3[C@@]4(C)CC[C@H](O)[C@@](C)(CO)[C@@H]4CC[C@@]3(C)[C@]1(C)CC2` [Compound No. 2, 2-Acetoxyethyl 3β,23(4α)-dihydroxyolean-12-en-28-oate] was tested. Which “Number of mesangial cells per glomerulus” value (mesangial cells [1]) did it give?
A: Its value is 50.9 ± 1.3.

Q: And the inhibition at 10 µg/mL (mesangial cells [2])?
A: The inhibition at 10 µg/mL was 57.9%.

Q: Which results are given for `COCCNC(=O)[C@]12CCC(C)(C)C[C@H]1C1=CC[C@@H]3[C@@]4(C)CC[C@H](O)[C@@](C)(CO)[C@@H]4CC[C@@]3(C)[C@]1(C)CC2` [Compound No. 9, N-(2-methoxyethyl)-3β,23(4α)-dihydroxyolean-12-en-28-amide]?
A: Number of mesangial cells per glomerulus (mesangial cells [1]): 45.8 ± 0.7; inhibition at 10 µg/mL (mesangial cells [2]): 43.3%; Acute toxicity: abnormal findings (mice): nor was there any abnormal findings; Acute toxicity: death (mice): no death was encountered
